Experimental data: patent US20260250290A1 (BRISTOL-MYERS SQUIBB COMPANY, priority 2023, published 2026)
Where a name gives a salt, the structure may show the parent alone.

Molecular target: T1, full length SGK1 (Homo sapiens, UniProt O00141)
T1 construct: 125 μM full length SGK1 (Life Technologies Part #PR7358A); purchased Life Technologies PR7358A
T1 sequence (O00141 1-431): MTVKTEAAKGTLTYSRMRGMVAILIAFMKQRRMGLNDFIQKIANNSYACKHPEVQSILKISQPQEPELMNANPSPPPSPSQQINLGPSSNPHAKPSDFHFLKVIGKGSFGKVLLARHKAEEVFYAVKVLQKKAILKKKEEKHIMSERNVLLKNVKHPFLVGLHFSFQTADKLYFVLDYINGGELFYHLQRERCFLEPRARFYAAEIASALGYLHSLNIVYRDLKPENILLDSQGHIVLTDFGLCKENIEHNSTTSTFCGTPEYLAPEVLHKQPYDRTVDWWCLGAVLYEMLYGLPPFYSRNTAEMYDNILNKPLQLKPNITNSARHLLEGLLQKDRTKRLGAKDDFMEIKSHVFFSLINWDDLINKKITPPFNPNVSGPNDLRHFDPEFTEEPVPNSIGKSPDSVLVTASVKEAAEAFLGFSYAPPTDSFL
Assay: SGK1 inhibition Assay A (Caliper LabChip electrophoretic separation of fluorescent peptide substrate and phosphorylated product)
Assay type: biochemical
Details: Assay A; 20 μM ATP, 40 min incubation; read-out: SGK1 IC50

Q: For `COc1cc(C(=O)N[C@@H]2CCCN(c3cc(C4=CN(S(C)(=O)=O)CC4)n4ncnc(N)c34)C2)ccn1` [Example 115, (R)—N-(1-(4-amino-7-(1-(methylsulfonyl)-4,5-dihydro-1H-pyrrol-3-yl)pyrrolo[2,1-f][1,2,4]triazin-5-yl)piperidin-3-yl)-2-methoxyisonicotinamide], which IC50 is on record?
A: The IC50 was 103 nM.

Q: With `Cc1cc(C(=O)N[C@@H]2CCCN(c3cc(C4=CCN(S(C)(=O)=O)C4)n4ncnc(N)c34)C2)ccn1` [Example 116, (R)—N-(1-(4-amino-7-(1-(methylsulfonyl)-2,5-dihydro-1H-pyrrol-3-yl)pyrrolo[2,1-f][1,2,4]triazin-5-yl)piperidin-3-yl)-2-methylisonicotinamide] as the molecule, how does the IC50 read?
A: Its IC50 is 12 nM.

Q: `CS(=O)(=O)N1CC=C(c2cc(N3CCC[C@@H](NC(=O)c4ccnc(F)c4)C3)c3c(N)ncnn23)C1` [Example 117, (R)—N-(1-(4-amino-7-(1-(methylsulfonyl)-2,5-dihydro-1H-pyrrol-3-yl)pyrrolo[2,1-f][1,2,4]triazin-5-yl)piperidin-3-yl)-2-fluoroisonicotinamide, TFA] was tested. Which IC50 did it give?
A: Its IC50 is 6 nM.

Q: Which IC50 does the source give for `CS(=O)(=O)N1C=C(c2cc(N3CCC[C@@H](NC(=O)c4ccnc(F)c4)C3)c3c(N)ncnn23)CC1` [Example 118, (R)—N-(1-(4-amino-7-(1-(methylsulfonyl)-4,5-dihydro-1H-pyrrol-3-yl)pyrrolo[2,1-f][1,2,4]triazin-5-yl)piperidin-3-yl)-2-fluoroisonicotinamide, TFA] here?
A: Its IC50 is 130 nM.

Q: How did the IC50 turn out when `CC(C)c1cc(C(=O)N[C@@H]2CCCN(c3cc(C4=CCN(S(C)(=O)=O)C4)n4ncnc(N)c34)C2)on1` [Example 119, (R)—N-(1-(4-amino-7-(1-(methylsulfonyl)-2,5-dihydro-1H-pyrrol-3-yl)pyrrolo[2,1-f][1,2,4]triazin-5-yl)piperidin-3-yl)-3-isopropylisoxazole-5-carboxamide, TFA] was run?
A: The IC50 was 18 nM.

Q: `CC(C)(C)OC(=O)N[C@@H]1CCCCN(c2cc(-c3ccc(S(C)(=O)=O)cc3)n3ncnc(N)c23)C1` [Example 120, tert-butyl (R)-(1-(4-amino-7-(4-(methylsulfonyl)phenyl)pyrrolo[2,1-f][1,2,4]triazin-5-yl)azepan-3-yl)carbamate] was tested. Which IC50 did it give?
A: The IC50 was 3400 nM.

Q: For `COc1cc(C(=O)N(C)[C@@H]2CCCN(c3cc(-c4ccc(S(C)(=O)=O)cc4)n4ncnc(N)c34)C2)ccn1` [Example 121, (R)—N-(1-(4-amino-7-(4-(methylsulfonyl)phenyl)pyrrolo[2,1-f][1,2,4]triazin-5-yl)piperidin-3-yl)-2-methoxy-N-methylisonicotinamide], which IC50 is on record?
A: The IC50 was 383 nM.

Q: `Cc1ccc(C(=O)N(C)[C@@H]2CCCN(c3cc(-c4ccc(S(C)(=O)=O)cc4)n4ncnc(N)c34)C2)s1` [Example 122, (R)—N-(1-(4-amino-7-(4-(methylsulfonyl)phenyl)pyrrolo[2,1-f][1,2,4]triazin-5-yl)piperidin-3-yl)-N,5-dimethylthiophene-2-carboxamide] was tested. Which IC50 did it give?
A: The IC50 was 29 nM.

Q: With `CN(C(=O)c1ccccc1)[C@@H]1CCCN(c2cc(-c3ccc(S(C)(=O)=O)cc3)n3ncnc(N)c23)C1` [Example 123, (R)—N-(1-(4-amino-7-(4-(methylsulfonyl)phenyl)pyrrolo[2,1-f][1,2,4]triazin-5-yl)piperidin-3-yl)-N-methylbenzamide] as the molecule, how does the IC50 read?
A: Its IC50 is 606 nM.

Q: With `Cc1ccc(C(=O)N[C@@H]2CCCN(c3cc(C4=CCN(S(C)(=O)=O)C4)n4ncnc(N)c34)C2)s1` [Example 124, (R)—N-(1-(4-amino-7-(1-(methylsulfonyl)-2,5-dihydro-1H-pyrrol-3-yl)pyrrolo[2,1-f][1,2,4]triazin-5-yl)piperidin-3-yl)-5-methylthiophene-2-carboxamide] as the molecule, how does the IC50 read?
A: Its IC50 is 2 nM.

Q: With `Cc1ccc(C(=O)N[C@@H]2CCCN(c3cc(C4=CN(S(C)(=O)=O)CC4)n4ncnc(N)c34)C2)s1` [Example 125] as the molecule, how does the IC50 read?
A: The IC50 was 27 nM.

Q: With `Nc1ncnn2c(-c3ccncc3)cc(N3CCC[C@@H](NC(=O)c4ccccc4)C3)c12` [Example 126, N-[(3R)-1-[4-amino-7-(pyridin-4-yl)pyrrolo[2,1-f][1,2,4]triazin-5-yl]piperidin-3-yl]benzamide] as the molecule, how does the IC50 read?
A: Its IC50 is 5 nM.

Q: `COc1cc(C(=O)N[C@@H]2CCCN(c3cc(-c4ccncc4)n4ncnc(N)c34)C2)ccn1` [Example 127, N-[(3R)-1-[4-amino-7-(pyridin-4-yl)pyrrolo[2,1-f][1,2,4]triazin-5-yl]piperidin-3-yl]-2-methoxypyridine-4-carboxamide] was tested. Which IC50 did it give?
A: Its IC50 is 5 nM.

Q: `Cc1ccc(C(=O)N[C@@H]2CCCN(c3cc(-c4ccncc4)n4ncnc(N)c34)C2)s1` [Example 128, N-[(3R)-1-[4-amino-7-(pyridin-4-yl)pyrrolo[2,1-f][1,2,4]triazin-5-yl]piperidin-3-yl]-5-methylthiophene-2-carboxamide] was tested. Which IC50 did it give?
A: Its IC50 is 2 nM.

Q: How did the IC50 turn out when `Nc1ncnn2c(-c3ccnc(F)c3)cc(N3CCC[C@@H](NC(=O)c4ccc(Cl)s4)C3)c12` [Example 130, N-[(3R)-1-[4-amino-7-(2-fluoropyridin-4-yl)pyrrolo[2,1-f][1,2,4]triazin-5-yl]piperidin-3-yl]-5-chlorothiophene-2-carboxamide] was run?
A: The IC50 was 19 nM.

Q: With `Cc1ccc(C(=O)N[C@@H]2CCCN(c3cc(-c4ccnc(F)c4)n4ncnc(N)c34)C2)s1` [Example 131, N-[(3R)-1-[4-amino-7-(2-fluoropyridin-4-yl)pyrrolo[2,1-f][1,2,4]triazin-5-yl]piperidin-3-yl]-5-methylthiophene-2-carboxamide] as the molecule, how does the IC50 read?
A: Its IC50 is 2 nM.

Q: Which IC50 does the source give for `Cc1cc(-c2cc(N3CCC[C@@H](NC(=O)c4ccc(Cl)s4)C3)c3c(N)ncnn23)ccn1` [Example 132, N-[(3R)-1-[4-amino-7-(2-methylpyridin-4-yl)pyrrolo[2,1-f][1,2,4]triazin-5-yl]piperidin-3-yl)-5-chlorothiophene-2-carboxamide] here?
A: The IC50 was 4 nM.

Q: Which IC50 does the source give for `Cc1cc(-c2cc(N3CCC[C@@H](NC(=O)c4ccc(C)s4)C3)c3c(N)ncnn23)ccn1` [Example 133, N-[(3R)-1-[4-amino-7-(2-methylpyridin-4-yl)pyrrolo[2,1-f][1,2,4]triazin-5-yl]piperidin-3-yl]-5-methylthiophene-2-carboxamide] here?
A: Its IC50 is 4 nM.

Q: Which IC50 does the source give for `CS(=O)(=O)N1CC=C(c2cc(N3CCC[C@@H](NC(=O)c4ccc(Cl)s4)C3)c3c(N)ncnn23)C1` [Example 134, (R)—N-(1-(4-amino-7-(1-(methylsulfonyl)-2,5-dihydro-1H-pyrrol-3-yl)pyrrolo[2,1-f][1,2,4]triazin-5-yl)piperidin-3-yl)-5-chlorothiophene-2-carboxamide] here?
A: Its IC50 is 2 nM.

Q: `CS(=O)(=O)N1CC=C(c2cc(N3CCC[C@@H](NC(=O)c4cccs4)C3)c3c(N)ncnn23)C1` [Example 135, (R)—N-(1-(4-amino-7-(1-(methylsulfonyl)-2,5-dihydro-1H-pyrrol-3-yl)pyrrolo[2,1-f][1,2,4]triazin-5-yl)piperidin-3-yl)thiophene-2-carboxamide, TFA] was tested. Which IC50 did it give?
A: Its IC50 is 3 nM.

Q: `Cc1ccc(C(=O)N[C@@H]2CCN(c3cc(-c4ccc(S(C)(=O)=O)cc4)n4ncnc(N)c34)C2)s1` [Example 136, (R)—N-(1-(4-amino-7-(4-(methylsulfonyl)phenyl)pyrrolo[2,1-f][1,2,4]triazin-5-yl)pyrrolidin-3-yl)-5-methylthiophene-2-carboxamide, TFA] was tested. Which IC50 did it give?
A: The IC50 was 230 nM.

Q: How did the IC50 turn out when `CS(=O)(=O)c1ccc(-c2cc(N3CC[C@@H](NC(=O)c4ccc(Cl)s4)C3)c3c(N)ncnn23)cc1` [Example 137, (R)—N-(1-(4-amino-7-(4-(methylsulfonyl)phenyl)pyrrolo[2,1-f][1,2,4]triazin-5-yl)pyrrolidin-3-yl)-5-chlorothiophene-2-carboxamide, TFA] was run?
A: The IC50 was 143 nM.

Q: With `COC(=O)N1CC=C(c2cc(N3CCC[C@@H](NC(=O)c4ccc(Cl)s4)C3)c3c(N)ncnn23)C1` [Example 138, methyl (R)-3-(4-amino-5-(3-(5-chlorothiophene-2-carboxamido)piperidin-1-yl)pyrrolo[2,1-f][1,2,4]triazin-7-yl)-2,5-dihydro-1H-pyrrole-1-carboxylate, TFA] as the molecule, how does the IC50 read?
A: The IC50 was 7 nM.

Q: With `NC(=O)c1ccc(-c2cc(N3CCC[C@@H](NC(=O)c4ccc(Cl)s4)C3)c3c(N)ncnn23)cc1F` [Example 139, (R)—N-(1-(4-amino-7-(4-carbamoyl-3-fluorophenyl)pyrrolo[2,1-f][1,2,4]triazin-5-yl)piperidin-3-yl)-5-chlorothiophene-2-carboxamide, TFA] as the molecule, how does the IC50 read?
A: Its IC50 is 3 nM.

Q: Which IC50 does the source give for `COCCOc1cc(Cl)sc1C(=O)N[C@@H]1CCCN(c2cc(C3=CCN(S(C)(=O)=O)C3)n3ncnc(N)c23)C1` [Example 140, (R)—N-(1-(4-amino-7-(1-(methylsulfonyl)-2,5-dihydro-1H-pyrrol-3-yl)pyrrolo[2,1-f][1,2,4]triazin-5-yl)piperidin-3-yl)-5-chloro-3-(2-methoxyethoxy)thiophene-2-carboxamide] here?
A: The IC50 was 6 nM.

Q: With `CN(C)CCOc1cc(Cl)sc1C(=O)N[C@@H]1CCCN(c2cc(C3=CCN(S(C)(=O)=O)C3)n3ncnc(N)c23)C1` [Example 141, (R)—N-(1-(4-amino-7-(1-(methylsulfonyl)-2,5-dihydro-1H-pyrrol-3-yl)pyrrolo[2,1-f][1,2,4]triazin-5-yl)piperidin-3-yl)-5-chloro-3-(2-(dimethylamino)ethoxy)thiophene-2-carboxamide, TFA] as the molecule, how does the IC50 read?
A: The IC50 was 3 nM.

Q: With `CS(=O)(=O)N1CC=C(c2cc(N3CCC[C@@H](NC(=O)c4sc(Cl)cc4OCCN4CCOCC4)C3)c3c(N)ncnn23)C1` [Example 142, (R)—N-(1-(4-amino-7-(1-(methylsulfonyl)-2,5-dihydro-1H-pyrrol-3-yl)pyrrolo[2,1-f][1,2,4]triazin-5-yl)piperidin-3-yl)-5-chloro-3-(2-morpholinoethoxy)thiophene-2-carboxamide, TFA] as the molecule, how does the IC50 read?
A: Its IC50 is 9 nM.
